Reference: US20200170244A1, “METHODS FOR PRESERVING, TRANSPORTING AND STORING LIVING BIOLOGICAL MATERIALS” (priority 2013, published 2020)
Entries after “also recorded” stand apart in the source; their conditions may differ.

System: keratinocytes
Experiment: Effect of vanadium compounds on proliferation of keratinocytes (hair follicle culture, cell count)
Format: cell-based
Conditions: 14 days at 31° C.; for amount of proliferated keratinocytes (number of cells per ml of culture medium): 1 mg/ml in basic SFK growth serum, relative to control SFK without vanadium compound
Method: Method: The hair follicles were transferred to a 24-well culture disk containing dSFK with […] penicillin (Life Technologies B.V. Breda, The Netherlands) and 0.25 μg/ml streptomycin (Life Technologies B.V. Breda, The Netherlands), and placed for 14 days in a culture medium at 31° C. in a humidified atmosphere containing 5% CO2. Three different culture medium were used: • Treatment group oxovanadium (OVAN): The culture medium is a composition comprising a basic SFK growth serum (purchased from the supplier SFK, Enschede The Netherlands) supplemented with either 1 mg/ml of OVAN. • Treatment group bis (maltolato) oxovanadium (BMOV): The culture medium is a composition comprising a basic SFK growth serum (purchased from the supplier SFK, Enschede The Netherlands) supplemented with either 1 mg/ml of BMOV. • Control group: The control situation consists of a composition comprising the SFK basic growth serum but without the vanadium compounds (i.e. OVAN or BMOV).
The respective culture media were carefully removed every three days and replaced by fresh culture media. The cells remained attached to the hair follicles during this culture period. After 14 days the culture medium was removed and replaced by a 0.5 mg/ml trypsin, 0.2 mg/ml EDTA (ethylene diaminetetraacetic acid) solution (Life Technologies B.V. Breda, The Netherlands), and incubated for 5 minutes at 37° C. in this medium. After this incubation period clusters of cells were released from the hair follicles. These were harvested by centrifugation at 300 g at 4° C. for 5 minutes in a Eppendorf 5804R Centrifuge (VWR International, The Netherlands). Number of cells were counted and expressed as amount of proliferated cells per ml of culture medium.

| Compound | proliferated keratinocytes, BMOV compared with OVAN (1 mg/ml each in basic SFK growth serum) | amount of proliferated keratinocytes (number of cells per ml of culture medium) |
| --- | --- | --- |
| Cc1occc(=O)c1[O-].Cc1occc(=O)c1[O-].[O]=[V+2] [BMOV, bis(maltolato)oxovanadium] | more potent than OVAN; also recorded: greater number of proliferated cells relative to treatment with OVAN | significantly increased; also recorded: enhanced proliferation |
| oxovanadium | – | significantly increased; also recorded: enhanced proliferation |
